The values below are quoted from earlier work in patent US20090258907A1, “COMPOUNDS USEFUL AS INHIBITORS OF ROCK KINASES” (ABBOTT LABORATORIES, priority 2008, published 2009).

For data set [1] the following is noted: experimental myocardial infarction (MI); rat chronic hypertension induced congestive heart failure.
For data set [2] the following is noted: mouse, in vivo.
For data set [3] the following is noted: CNS ischemic conditions.
For data set [4] the following is noted: OLETF rats, high dose.
The conditions of data set [5]: Zucker obese rats, 4 weeks.
The subject of data set [6] is vascular smooth muscle cell (VSMC). The conditions noted are these: vein grafts, weeks following the procedure.

For `O=S(=O)(c1cccc2cnccc12)N1CCCNCC1` [fasudil], in data set [1], the “effect on ischemia-reperfusion injury, myocardial infarct size and myocardial fibrosis” value was “decrease ischemia-reperfusion injury, myocardial infarct size, and myocardial fibrosis”. Besides, the “efficacy in animal models of epileptogenesis” value in data set [2] is “efficacy”. The “cerebral blood flow and neuroprotection” value in data set [3] is “increased cerebral blood flow and was neuroprotective”. The “development of diabetes, obesity, dyslipidemia; serum adiponectin” value in data set [4] was “completely suppressed the development of diabetes, obesity, and dyslipidemia and increased serum adiponectin levels”. Also, the “blood pressure, glucose and lipid metabolism, insulin signalling, endothelial dysfunction” value in data set [5] is “reduced blood pressure, corrected glucose and lipid metabolism, improved insulin signalling and endothelial dysfunction”. Besides, in data set [6], the VSMC apoptosis result was “enhanced”; the “intimal thickening and VSMC proliferation” value is “significantly suppressed”.
